Laboratory results reported in article PMC7794397, “Curbing gastrointestinal infections by defensin fragment modifications without harming commensal microbiota” (Communications Biology, 2021).
Read-outs that look alike come from different tables or passages of the source. Residues, ends and D or L forms follow the SMILES beside them. *: point of attachment. Palmitoyl = CCCCCCCCCCCCCCCC(=O)*; AEEA = NCCOCCOCC(=O)O

How the values were obtained:
Format in all cases: cell-based
S. aureus ATCC 25923 = settings: for Fold change in MIC: relative to MIC of first passage, Mean
Procedure: Development of resistance to the peptides was assessed with S. aureus and S. Typhimurium. […] Bacteria were cultured overnight at 37 °C at 150 rpm in TSB. Bacteria were washed twice with 10 mM sodium phosphate buffer containing 1% (w/v) TSB. […] After incubation, 100 µl of 6% TSB (w/v) was added and plates incubated in a humidified atmosphere for 21 h at 37 °C and 150 rpm.
The MIC, the lowest concentration of peptide/antibiotic that caused a lack of visible bacterial growth, was determined for each bacterial species. […] This was repeated for 25 passages.

[1] = system: B. subtilis ypuA promoter; test: ypuA promoter luciferase reporter strain (cell envelope stress)
Procedure: A specific bacterial reporter strain with the genetic background of Bacillus subitilis 1S34, carrying the promoter of the ypuA gene, fused to the firefly luciferase reporter gene, was used to identify cell envelope-related damage caused by treatment with antimicrobial compounds[31]. The assay was carried out in agreement with former reports describing this method[20],[59]. Bacteria were cultured to an OD600 of 0.9 in LB broth with 5 µg/ml erythromycin at 37 °C and diluted to an OD600 of 0.02. Serial peptide dilutions (0.15–150 µM) were prepared in a microtiter plate and incubated with the adjusted bacterial suspension at 37 °C for 1 h. Subsequently, citrate buffer (0.1 M, pH 5) containing 2 mM luciferin (Iris Biotech, Germany) was added and luminescence was measured using a microplate reader (Tecan, Switzerland).

S. aureus NCTC8325 = test: Bacterial pore formation (SYTO9/propidium iodide); settings: 37.5 µM Pam-3 (4x MIC), 10 min; Syto9 and propidium iodide
Procedure: Pore formation was monitored using the Live/Dead BacLight bacterial viability kit (Molecular Probes)[60]. […] Samples were taken after 10 min of peptide treatment, then 0.2 µl of a 1:1 mixture of SYTO9 and propidium iodide (PI) was added and further incubated for 15 min at RT in the dark. […] Images were acquired with an Orca Flash 4.0 V2 camera (Hamamatsu), C Plan-Apo 63x/1.4 Oil DIC and alpha Plan-Apochromat 100x/1.46 Oil Ph3 objectives (Zeiss) and processed using the Zen software package (Zeiss).

Structure (SMILES): CCCCCCCCCCCCCCCC(=O)NCCOCCOCC(=O)N[C@@H](CCCNC(=N)N)C(=O)NCC(=O)N[C@@H](CCCCN)C(=O)N[C@@H](C)C(=O)N[C@@H](CCCCN)C(=O)N[C@@H](CS)C(=O)N[C@@H](CS)C(=O)N[C@@H](CCCCN)C(=O)O [Pam-3] ({Palmitoyl-AEEA}-RGKAKCCK-OH; C-terminus assumed)
- Fold change in MIC (S. aureus ATCC 25923; Day (passage) 0): 1.0
- Fold change in MIC (S. aureus ATCC 25923; Day (passage) 1): 0.7
- Fold change in MIC (S. aureus ATCC 25923; Day (passage) 2): 1.0
- Fold change in MIC (S. aureus ATCC 25923; Day (passage) 3): 1.0
- Fold change in MIC (S. aureus ATCC 25923; Day (passage) 4): 1.3
- Fold change in MIC (S. aureus ATCC 25923; Day (passage) 5): 1.2
- Fold change in MIC (S. aureus ATCC 25923; Day (passage) 6): 0.8
- Fold change in MIC (S. aureus ATCC 25923; Day (passage) 7): 0.7
- Fold change in MIC (S. aureus ATCC 25923; Day (passage) 8): 0.8
- Fold change in MIC (S. aureus ATCC 25923; Day (passage) 9): 1.0
- Fold change in MIC (S. aureus ATCC 25923; Day (passage) 10): 1.3
- Fold change in MIC (S. aureus ATCC 25923; Day (passage) 11): 1.3
- Fold change in MIC (S. aureus ATCC 25923; Day (passage) 12): 1.2
- Fold change in MIC (S. aureus ATCC 25923; Day (passage) 13): 1.2
- Fold change in MIC (S. aureus ATCC 25923; Day (passage) 14): 1.3
- Fold change in MIC (S. aureus ATCC 25923; Day (passage) 15): 1.2
- Fold change in MIC (S. aureus ATCC 25923; Day (passage) 16): 0.7
- Fold change in MIC (S. aureus ATCC 25923; Day (passage) 17): 1.3
- Fold change in MIC (S. aureus ATCC 25923; Day (passage) 18): 0.7
- Fold change in MIC (S. aureus ATCC 25923; Day (passage) 19): 1.8
- Fold change in MIC (S. aureus ATCC 25923; Day (passage) 20): 1.2
- Fold change in MIC (S. aureus ATCC 25923; Day (passage) 21): 1.0
- Fold change in MIC (S. aureus ATCC 25923; Day (passage) 22): 1.3
- Fold change in MIC (S. aureus ATCC 25923; Day (passage) 23): 1.2
- Fold change in MIC (S. aureus ATCC 25923; Day (passage) 24): 1.3
- Fold change in MIC (S. aureus ATCC 25923; Day (passage) 25): 1.2
- increase in MIC (in words) (S. aureus ATCC 25923; sub-inhibitory concentrations for 25 passages): no significant increase
- activation of the ypuA promoter [1]: 2 fold
- ypuA promoter activation (relative to untreated = 1) ([1]; 0.031x MIC Pam-3, 1 h, experiment 1): 1.05
- ypuA promoter activation (relative to untreated = 1) ([1]; 0.031x MIC Pam-3, 1 h, experiment 2): 1.15
- ypuA promoter activation (relative to untreated = 1) ([1]; 0.031x MIC Pam-3, 1 h, experiment 3): 1.17
- ypuA promoter activation (relative to untreated = 1) ([1]; 0.062x MIC Pam-3, 1 h, experiment 1): 1.16
- ypuA promoter activation (relative to untreated = 1) ([1]; 0.062x MIC Pam-3, 1 h, experiment 2): 1.27
- ypuA promoter activation (relative to untreated = 1) ([1]; 0.062x MIC Pam-3, 1 h, experiment 3): 1.36
- ypuA promoter activation (relative to untreated = 1) ([1]; 0.125x MIC Pam-3, 1 h, experiment 1): 1.38
- ypuA promoter activation (relative to untreated = 1) ([1]; 0.125x MIC Pam-3, 1 h, experiment 2): 1.48
- ypuA promoter activation (relative to untreated = 1) ([1]; 0.125x MIC Pam-3, 1 h, experiment 3): 1.76
- ypuA promoter activation (relative to untreated = 1) ([1]; 0.25x MIC Pam-3, 1 h, experiment 1): 2.12
- ypuA promoter activation (relative to untreated = 1) ([1]; 0.25x MIC Pam-3, 1 h, experiment 2): 2
- ypuA promoter activation (relative to untreated = 1) ([1]; 0.25x MIC Pam-3, 1 h, experiment 3): 2.57
- ypuA promoter activation (relative to untreated = 1) ([1]; 0.5x MIC Pam-3, 1 h, experiment 1): 0.23
- ypuA promoter activation (relative to untreated = 1) ([1]; 0.5x MIC Pam-3, 1 h, experiment 2): 0.18
- ypuA promoter activation (relative to untreated = 1) ([1]; 0.5x MIC Pam-3, 1 h, experiment 3): 0.26
- ypuA promoter activation (relative to untreated = 1) ([1]; 1x MIC Pam-3, 1 h, experiment 1): 0
- ypuA promoter activation (relative to untreated = 1) ([1]; 1x MIC Pam-3, 1 h, experiment 2): 0
- ypuA promoter activation (relative to untreated = 1) ([1]; 1x MIC Pam-3, 1 h, experiment 3): 0.02
- ypuA promoter activation (relative to untreated = 1) ([1]; 2x MIC Pam-3, 1 h, experiment 1): 0
- ypuA promoter activation (relative to untreated = 1) ([1]; 2x MIC Pam-3, 1 h, experiment 2): 0
- ypuA promoter activation (relative to untreated = 1) ([1]; 2x MIC Pam-3, 1 h, experiment 3): 0
- pore formation (in words) (S. aureus NCTC8325): strong influx of PI
